Test results from patent US12325862B2, “Compositions and methods for transgenic crops resistant to thaxtomins” (University of Florida Research Foundation, Inc., priority 2019, dated 2025).

How the values were obtained:
[1] = system: radish seedlings; experiment: Radish seedling assay; format: in vivo; conditions: for growth of radish seedlings on agar plate: after seven days, compared with negative control DMSO
Experimental: Serial concentrations of thaxtomins in DMSO were added into 20 mL of 1.5% warm agar solution with gentle agitation to the final concentrations range from 0 to 2 μM. DMSO was included as a negative control. The solution was then poured into the plate for solidification at room temperature for 30 min. Radish seeds (W. Atlee Burpee & Co., Warminster Township, Pennsylvania) were surface disinfested, pregerminated, and selected when the radicle was […] and just emerged from the seed coat. Six radish seedlings were equally located on the surface of each plate with the root ends all pointed in the same direction. Agar plates were covered and sealed with Parafilm®. The seedlings in the agar plates grew at room temperature under fluorescent lighting (12 h per day for 7 days), and then the seedling with average size of all seedlings in the same plate was selected for comparison.
A radish seedling assay was carried out to investigate the herbicidal activity of serial concentrations of 4-amino thaxtomin A (compound 5). The assay also included DMSO as negative control and thaxtomin A (1) as positive control. […] The diminished herbicidal activity is caused by the transformation of the nitro group of thaxtomin A (1) into the amine group.

[2] = NfsB enzymatic reaction, conditions optimized with thaxtomin A as substrate; format: biochemical
Experimental: Enzymatic reaction conditions were optimized with thaxtomin A as substrate. […] When coupled with a glucose dehydrogenase (GDH)- or phosphite dehydrogenase (PTDH)-based NADPH regeneration system, the enzyme at 10 μM achieved greater than 90% conversion of thaxtomin A (2 mM) at 37° C. in 8 hours. […] In addition, a crude extract of engineered thaxtomin producing strain Streptomyces albus-thx2 was prepared; the extract contained about 69% thaxtomin A based on HPLC analysis.

Row | Molecule | growth of radish seedlings on agar plate ([1]; 2.0 μM) | growth of radish seedlings on agar plate ([1]; 0.05 μM) | herbicidal activity to radish seedlings ([1]; overall conclusion, 0.05 μM and 2.0 μM) | conversion of thaxtomin A (1) in crude extract into compound 5 ([2]; crude extract of Streptomyces albus-thx2, about 69% thaxtomin A) | conversion of thaxtomin A ([2]; enzyme 10 μM, thaxtomin A 2 mM, 37° C., 8 hours, GDH- or PTDH-based NADPH regeneration system) | temperature of highest enzyme activity ([2]; thaxtomin A as substrate) [°C]
1 | CN1C(=O)[C@](O)(Cc2cccc(O)c2)N(C)C(=O)[C@@H]1Cc1c[nH]c2cccc([N+](=O)[O-])c12 [thaxtomin A, reference compound] | significantly inhibited | – | – | – | – | –
2 | CN1C(=O)[C@](O)(Cc2cccc(O)c2)N(C)C(=O)[C@@H]1Cc1c[nH]c2cccc(N)c12 [compound 5, 4-amino thaxtomin A] | the same as the negative control DMSO | the same as the negative control DMSO | minimal to no herbicidal activity | – | – | –
3 | NfsB: nitroreductase from Haemophilus influenzae (SEQ ID NO: 4), recombinant with C-terminal His6 tag (protein, listed as Haemophilus influenzae, C-terminal His6 tag) MTQLTREQVLELFHQRSSTRYYDPTKKISDEDFECILECGRLSPSSVGSEPWKFLVIQNKTLREKMKPFSWGMINQLDNCSHLVVILAKKNARYDSPFFVDVMARKGLNAEQQQAALTKYKALQEEDMKLLENDRTLFDWCSKQTYIALANMLTGASALGIDSCPIEGFHYDKMNECLAEEGLFDPQEYAVSVAATFGYRSRDIAKKSRKGLDEVVKWVG | – | – | – | completely converted | greater than 90% | 37
